From patent US9989531B2, “Composition comprising a cell sample from a subject with scoliosis and a reagent for detecting PTPμ or PIPK1y” (Chu Sainte-Justine, priority 2013, dated 2018) come the findings set out here.

For data set [1], the system named is α2 adrenergic receptor (α2-ADR). Briefly: GiPCR signaling by cellular dielectric spectroscopy (CDS), oxymethazolin stimulation of osteoblasts. The note with it: osteoblasts from bipedal WT and PTPμ−/− mice, different concentrations (FIG. 3). In kind it is cell-based, mouse. As for the experimental part:
(§1) The signaling capacity of G proteins was assessed from osteoblast cultures using cellular dielectric spectroscopy (CDS) performed on a CellKey™ apparatus (MDS Sciex, San Francisco, Calif.), as described in Akoume, et al., 2010 and WO 2010/040234, 2010 to Moreau et al. To assess GiPCR cell signaling, specific agonists that bind to GiPCR and regulate Gi proteins were used: Apelin-17, Oxymethazolin and Somatostatin (Som) (Tocris Bioscience, Canada).
To examine the impact of PTPμ deficiency on this defect, osteoblasts from bipedal WT and PTPμ^−/− mice were screened for their response to three GiPCR selective agonists identified in (FIG. 2). In agreement with previous results (Akoume et al Spine 2010), all three compounds evoked typical CDS response profiles of GiPCR in WT osteoblasts. Consistent with Gi coupling for their cognate receptors in these cells, response to each of the three tested compounds was blocked by pre-treatment with PTX (FIGS. 2 A-F). Similar results were obtained with PTPμ^−/− osteoblasts (FIGS. 2 G-L). […] However, in each case, osteoblasts from PTPμ^−/− mice were less responsive than those from WT mice, but EC50 values were similar in both groups (FIGS. 3 A-C).

In a further data set the target is T1, Apelin receptor (APJR) (Mus musculus, UniProt Q9WV08).
T1 construct: The signaling capacity of G proteins was assessed from osteoblast cultures using cellular dielectric spectroscopy (CDS); endogenous in cells; host or cells: primary spine osteoblasts from bipedal C57Bl/6j WT and PTPμ-/- mice
T1 sequence (Q9WV08 1-377): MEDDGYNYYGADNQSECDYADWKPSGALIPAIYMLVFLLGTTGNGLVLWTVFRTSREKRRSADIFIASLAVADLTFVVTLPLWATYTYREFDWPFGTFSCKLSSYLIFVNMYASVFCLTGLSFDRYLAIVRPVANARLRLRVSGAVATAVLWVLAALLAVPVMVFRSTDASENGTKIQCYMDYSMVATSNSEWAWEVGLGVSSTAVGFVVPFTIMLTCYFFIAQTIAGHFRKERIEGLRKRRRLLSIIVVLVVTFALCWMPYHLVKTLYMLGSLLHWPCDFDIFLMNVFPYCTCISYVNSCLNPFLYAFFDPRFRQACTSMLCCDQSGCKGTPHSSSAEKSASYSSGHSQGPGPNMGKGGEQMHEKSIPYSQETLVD
Briefly: GiPCR signaling by cellular dielectric spectroscopy (CDS), apelin-17 stimulation of osteoblasts. Particulars: osteoblasts from bipedal WT and PTPμ−/− mice, different concentrations (FIG. 3). In kind it is cell-based.

The next data set concerns the target T2, OPN (Mus musculus, UniProt P10923).
T2 construct: endogenous in cells; host or cells: primary spine osteoblasts from bipedal C57Bl/6j WT and PTPμ-/- mice, transfected with OPN siRNA
Briefly: OPN knockdown by siRNA in osteoblasts, response to GiPCR stimulation (CDS). The note with it: WT and PTPμ−/− osteoblasts (FIGS. 3 F-H). In kind it is cell-based. As for the experimental part: as §1
(§2) Primary osteoblast cell cultures from C57BI/6j WT and C57B/6j PTPμ^−/− were cultured (as described above). Lipofectamine™ RNAiMAX (Invitrogen) was applied for siRNA transfection according to the manufacturer's instructions. The sequence of RNA oligo used for the knockdown of OPN is ([…] (SEQ ID NO: 25)). The cells were harvested for RNA extraction after 48 hrs. The same procedure was followed for phosphatidylinositol-phosphate kinase type I gamma (PIPK1γ). The sequence of RNA oligo used for the knockdown of PIPK1γ is ([…] (SEQ ID NO: 26)).
To relate these findings to the OPN action, the small interference RNA (siRNA) approach was used to knockdown the expression of OPN in WT and PTPμ^−/− osteoblasts.

For another data set, the system named is G αi proteins. The data set can be described thus: Pertussis toxin pre-treatment of osteoblasts before GiPCR agonist stimulation (CDS). The format is cell-based, mouse. The note with it: osteoblasts from bipedal WT and PTPμ−/− mice; agonists oxymethazolin, somatostatin, apelin-17 (FIG. 2).
Another data set deals with GiPCR signaling. Briefly: Exogenous recombinant OPN treatment of osteoblasts prior to GiPCR stimulation (CDS). In kind it is cell-based, mouse. The note with it: WT and PTPμ−/− osteoblasts, varying concentrations of rOPN (FIGS. 4 A-C). As for the experimental part:
as §1
WT and PTPμ^−/− osteoblasts were treated with varying concentrations of exogenous recombinant OPN (rOPN) prior to GiPCR stimulation with agonists identified in FIGS. 4 A-C.

The next data set deals with T3, PIPK1γ (Mus musculus, UniProt O70161).
T3 construct: endogenous in cells; host or cells: primary spine osteoblasts from bipedal C57Bl/6j WT and PTPμ-/- mice
T3 sequence (O70161 whole entry): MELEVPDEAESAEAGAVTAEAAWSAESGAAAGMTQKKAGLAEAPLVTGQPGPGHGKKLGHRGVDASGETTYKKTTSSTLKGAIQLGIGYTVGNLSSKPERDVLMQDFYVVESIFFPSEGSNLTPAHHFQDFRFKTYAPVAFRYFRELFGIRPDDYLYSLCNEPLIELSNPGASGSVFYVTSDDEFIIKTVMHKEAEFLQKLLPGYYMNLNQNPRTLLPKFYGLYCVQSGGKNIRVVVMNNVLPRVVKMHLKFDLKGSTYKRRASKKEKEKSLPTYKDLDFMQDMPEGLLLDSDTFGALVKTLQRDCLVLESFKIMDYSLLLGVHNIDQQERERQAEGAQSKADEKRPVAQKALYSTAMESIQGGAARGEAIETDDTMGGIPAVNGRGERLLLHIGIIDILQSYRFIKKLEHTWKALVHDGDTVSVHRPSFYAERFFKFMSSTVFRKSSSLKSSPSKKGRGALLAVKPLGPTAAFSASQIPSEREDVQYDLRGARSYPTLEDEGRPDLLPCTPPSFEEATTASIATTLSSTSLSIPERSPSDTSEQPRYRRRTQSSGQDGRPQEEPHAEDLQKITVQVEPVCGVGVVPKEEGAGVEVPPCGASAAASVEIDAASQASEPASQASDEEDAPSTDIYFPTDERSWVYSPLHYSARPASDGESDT
Briefly: PIPK1γ knockdown by siRNA in osteoblasts, response to somatostatin stimulation (CDS). The format is cell-based. The note with it: varying concentrations of somatostatin, vs scrb (FIG. 6H). As to the method: as §1, §2
To further assess the implication of PIPK1γ in the mechanism of action behind PTPμ deficiency, a SiRNA approach was used to knockdown the expression of PIPK1γ in WT and PTPμ^−/− osteoblasts prior to initiating GiPCR signaling with somatostatin stimulation. Efficiency of siRNA in WT and PTPμ^−/− osteoblasts was confirmed by qPCR and Western blot analysis (FIGS. 6 B and C). […]

T2 sequence (P10923 17-294): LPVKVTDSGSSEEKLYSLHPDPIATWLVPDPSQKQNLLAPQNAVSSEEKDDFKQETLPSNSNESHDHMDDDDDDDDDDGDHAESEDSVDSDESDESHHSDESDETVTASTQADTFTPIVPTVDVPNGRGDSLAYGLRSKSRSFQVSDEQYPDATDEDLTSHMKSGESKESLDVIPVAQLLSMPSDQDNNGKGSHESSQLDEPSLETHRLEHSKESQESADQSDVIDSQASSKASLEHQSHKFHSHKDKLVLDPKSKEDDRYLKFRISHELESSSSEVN
Description for G αi proteins: Furthermore, Pertussis toxin (PTX) (Sigma Aldrich, Canada) was used to determine if the effect of the agonists was related to G αi proteins.

In the case of `Cc1cc(C(C)(C)C)c(O)c(C)c1CC1=NCCN1` [oxymethazoin, Oxymethazolin], in data set [1], the “CDS response to agonist” value is recorded as “increased response in a concentration-dependent manner”.
For the molecule Apelin-17, on Apelin receptor (APJR), the “CDS response to agonist” value was “increased response in a concentration-dependent manner”.
As for “OPN siRNA: RNA oligo used for the knockdown of OPN: CCACAGCCACAAGCAGUCCAGAUUA (SEQ ID NO: 25) (CCACAGCCACAAGCAGUCCAGAUUA; listed as RNA, chemistry not given here)”, the “response to GiPCR stimulation after deletion of OPN” value with OPN is reported as “enhanced response to GiPCR stimulation”.
As to Pertussis toxin [PTX], the “effect of pre-treatment on Gi coupling of agonists to their cognate receptors” value in the data set with G αi proteins is reported as “blocked the Gi coupling”.
Take “rOPN: exogenous recombinant OPN (osteopontin)”: the “integrated response to GiPCR stimulation” value in the data set on GiPCR signaling was “decrease in the integrated response in a concentration-dependent manner”.
In the case of “siPIPK1: RNA oligo used for the knockdown of PIPK1γ: CCUCCACAUCGGGAUUGAUAUU (SEQ ID NO: 26) (CCUCCACAUCGGGAUUGAUAUU; listed as RNA, chemistry not given here)”, the results for the “response to somatostatin stimulation after depletion of PIPK1γ” value with PIPK1γ (WT osteoblasts) and in the data set with PIPK1γ (osteoblasts from PTPμ deficiency mice) were “same response” and “enhanced response to somatostatin stimulation”, respectively.
